Measurements as given in paper PMC10856041, “Chemical Epigenetic Regulation Secondary Metabolites Derived from Aspergillus sydowii DL1045 with Inhibitory Activities for Protein Tyrosine Phosphatases” (Molecules, 2024).
Values after ≈ are worked out from the molar mass of the structure shown.

What was measured:
[1] = test system: nematode; assay: anti-nematode activity
[2] = test system: two weeds; parameters: method as in PMID 11076561; conditions: cited from earlier work
[3] = target: T1, CD45 (Homo sapiens, UniProt P08575); assay: PTP inhibitory activity (p-NPP degradation), CD45; assay type: biochemical; conditions: p-NPP substrate, 37 °C, 30 min, 405 nm; mean ± SD, n = 3
T1 sequence (P08575 653-912 limits assumed): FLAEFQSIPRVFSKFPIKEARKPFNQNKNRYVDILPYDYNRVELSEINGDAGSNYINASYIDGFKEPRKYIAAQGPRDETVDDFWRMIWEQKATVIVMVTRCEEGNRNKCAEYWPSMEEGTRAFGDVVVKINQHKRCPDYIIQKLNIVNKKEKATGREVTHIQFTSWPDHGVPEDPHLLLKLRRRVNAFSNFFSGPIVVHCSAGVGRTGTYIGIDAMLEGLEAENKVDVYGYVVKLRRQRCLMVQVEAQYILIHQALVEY
Protocol: (§1) The diabetes-related PTPs (PTP1B, TCPTP, SHP1 and CD45) inhibitory activity of the tested compounds was measured as previously described. The compounds were dissolved in DMSO and incubated at 37 °C with 2.5 μg domain protein, 20 mM 3-(N-Morpholino) propanesulfonic (MOPS), 9 mM p-nitrophenyl phosphate (p-NPP), 50 mM NaCl and 50 mM DTT, pH 7.2. The reaction was performed in a 96-well plate (DMSO as blank control). The reaction was started by adding the assay buffer (50 mM citrate (pH 6.0), 0.1 M NaCl, 1 mM EDTA, and 1 mM dithiothreitol) with a final volume of 150 μL and incubated at 37 °C for 30 min and 10 M NaOH was added to terminate the reaction. The inhibition of PTPs by tested compounds was assessed by measuring the degradation of p-NPP at a wavelength of 405 nm.

[4] = target: T2, TCPTP (Homo sapiens, UniProt P17706); assay: PTP inhibitory activity (p-NPP degradation), TCPTP; assay type: biochemical; conditions: p-NPP substrate, 37 °C, 30 min, 405 nm; mean ± SD, n = 3
T2 construct: incubated at 37 °C with 2.5 μg domain protein
T2 sequence (P17706 5-275 limits assumed): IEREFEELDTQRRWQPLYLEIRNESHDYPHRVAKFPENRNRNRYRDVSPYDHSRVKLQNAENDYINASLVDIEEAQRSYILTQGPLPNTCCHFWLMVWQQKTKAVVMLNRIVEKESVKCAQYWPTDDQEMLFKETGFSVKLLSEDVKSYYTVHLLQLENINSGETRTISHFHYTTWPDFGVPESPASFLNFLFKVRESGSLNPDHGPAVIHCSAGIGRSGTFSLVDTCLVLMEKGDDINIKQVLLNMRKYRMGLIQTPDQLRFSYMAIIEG
Protocol: as §1

[5] = target: T3, SHP1 (Homo sapiens, UniProt P29350); assay: PTP inhibitory activity (p-NPP degradation), SHP1; assay type: biochemical; conditions: p-NPP substrate, 37 °C, 30 min, 405 nm; mean ± SD, n = 3
T3 construct: incubated at 37 °C with 2.5 μg domain protein
T3 sequence (P29350 244-515 limits assumed): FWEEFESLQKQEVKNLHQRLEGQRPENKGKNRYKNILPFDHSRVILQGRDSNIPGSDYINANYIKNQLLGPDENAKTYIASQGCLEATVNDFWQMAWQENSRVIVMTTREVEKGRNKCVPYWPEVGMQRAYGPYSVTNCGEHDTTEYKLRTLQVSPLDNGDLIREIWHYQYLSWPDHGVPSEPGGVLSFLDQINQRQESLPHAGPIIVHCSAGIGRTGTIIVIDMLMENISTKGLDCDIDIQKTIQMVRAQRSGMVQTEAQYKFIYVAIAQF
Protocol: as §1

[6] = target: T4, PTP1B (Homo sapiens, UniProt P18031); assay: PTP inhibitory activity (p-NPP degradation), PTP1B; assay type: biochemical; conditions: p-NPP substrate, 37 °C, 30 min, 405 nm; mean ± SD, n = 3
T4 construct: incubated at 37 °C with 2.5 μg domain protein
T4 sequence (P18031 3-277 limits assumed): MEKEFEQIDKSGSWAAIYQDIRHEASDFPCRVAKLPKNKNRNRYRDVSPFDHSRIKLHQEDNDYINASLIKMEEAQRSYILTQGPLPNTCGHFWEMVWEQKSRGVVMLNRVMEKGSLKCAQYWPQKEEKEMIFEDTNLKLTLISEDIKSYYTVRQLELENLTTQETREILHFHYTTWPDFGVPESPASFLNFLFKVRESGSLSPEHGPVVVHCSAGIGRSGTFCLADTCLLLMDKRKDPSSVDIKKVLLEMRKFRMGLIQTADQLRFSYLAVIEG
Protocol: as §1

[7] = test system: A-549 cells; parameters: method as in PMID 18505285; conditions: read-out: IC50 cytotoxicity against A-549 cells; cited from earlier work
[8] = test system: HDAC; parameters: method as in PMID 15808449, PMID 31201063; conditions: cited from earlier work
[9] = test system: Staphylococcus aureus; parameters: method as in PMID 32449250; conditions: cited from earlier work
[10] = test system: K. pneumonia; parameters: method as in PMID 24736857; conditions: cited from earlier work
[11] = test system: α-glucosidase; parameters: method as in PMID 24436963; conditions: cited from earlier work
[12] = test system: A. sydowii DL1045; assay: effect of SAHA on growth and fermentation of A. sydowii DL1045; assay type: cell-based, Aspergillus sydowii DL1045
Protocol: After A. sydowii DL1045 in rice extract culture medium was treated with three different histone deacetylase inhibitors, including suberoylanilide hydroxamic acid (SAHA), […] and nicotinamide, the fermentation status of the fungi was observed. […] The fermentation broth of A. sydowii DL1045 in the control group was dark green, whereas the fermentation broth in the 250 μM SAHA treatment group was golden yellow (Figure 1a,b). In addition, after 10 days, the weight of metabolites was 3.5 times lower in the SAHA group than in the control group (Figure S1, Supplementary Materials). […] This conjecture was confirmed by the results of scanning electron microscopy, and after 10 days of fermentation, the spores detached from the sporangium after maturation in the later stage of fermentation (Figure 1c).
A. sydowii DL1045 was retrieved from deep-sea mud sediment off the coast of Dalian, Liaoning Province, 121.55 °E and 38.88 °N, China. A. sydowii DL1045 was cultivated on potato dextrose agar (PDA) medium, consisting of 200 g/L of potato, 30 g/L of NaCl, 15 g/L of agar, and 20 g/L of dextrose and incubated for three days at 28 °C with 60% humidity. […]

IC50 [1] [µM]	IC50 [3] [µM]	IC50 [4] [µM]	IC50 [5] [µM]	IC50 [6] [µM]	Molecule	further results
> 100	7.4 ± 0.08	> 20	6.01 ± 0.18	7.6 ± 0.21	Cc1cc(O)cc(OC(=O)c2c(C)cc(O)cc2O)c1 [Compound A9, lecanorin]	inhibition of radicle growth and germination of two weeds [2]: markedly inhibited the radicle growth and germination of the two weeds
					14-hydroxyterezine D	IC50 [7]: 7.31 µM
					O=C(O)CCCCCCC(=O)Nc1ccccc1 [Compound S2, suberanilic acid]	HDAC inhibitory activity [8]: displayed HDAC inhibitory activity
					COC(=O)/C=C/c1cc(OC)c(OC)c(OC)c1 [Compound A6, methyl trimethoxycinnamate]	inhibitory activity against Staphylococcus aureus [9]: showed inhibitory activity against Staphylococcus aureus
50	4.03 ± 0.13	> 20	0.96 ± 0.02	> 20	Cc1cc(O)cc(Oc2cc(C)cc(O)c2)c1 [Compound A3, diorcinol]	MIC against K. pneumonia [10]: 21.7 mM (≈ 5000 µg/mL)
> 100	4.46 ± 0.16	> 20	2.16 ± 0.23	> 20	Cc1cc(Oc2cc(O)cc(C)c2C(=O)O)cc(O)c1C(=O)O [Compound A13, diorcinol acid]	
					COc1ccc([C@H]2N[C@H](CO)[C@@H](O)[C@@H]2O)cc1O [Compound A7, radicamine A]	α-glucosidase inhibitory activity [11]: exhibit α-glucosidase inhibitory activity
					C/C(=C/CCC(C)C)c1ccc(CO)cc1O [(Z)-5-(Hydroxymethyl)-2-(6′) methylhept-2′-en-2′-yl)-phenol, reference compound]	MIC against K. pneumonia [10]: 10.7 mM (≈ 2510 µg/mL)
> 100	> 20	> 20	8.69 ± 0.26	9.65 ± 0.73	C/C(=C\CCC(C)C)c1ccc(CO)cc1O [Compound A4, aspergillusene A]	MIC against K. pneumonia [10]: 21.4 mM (≈ 5010 µg/mL)
					COC(=O)CCCCCCC(=O)Nc1ccccc1 [Compound S1, methyl 8-oxo-8-(phenylamino) octanoate]	HDAC inhibitory activity [8]: displayed HDAC inhibitory activity
					O=C(CCCCCCC(=O)Nc1ccccc1)NO [SAHA, suberoylanilide hydroxamic acid]	effect on mycelial growth and spore germination ([12]; 250 μM SAHA, 10 days, scanning electron microscopy): inhibited mycelial growth and spore germination; weight of metabolites, times lower in SAHA group than in control group ([12]; after 10 days, ethyl acetate extract (Figure S1)): 3.5 times
					COc1ccc2c(c1)NC(=O)[C@@]21C=C2C(=O)N3CCC[C@H]3C(=O)N2[C@H]1C=C(C)C [6-methoxyspirotryprostatin B]	IC50 [7]: 8.29 µM
					COc1ccc2c(C[C@@H]3NC(=O)[C@@H]4CCCN4C3=O)c(C(=O)C=C(C)C)[nH]c2c1 [18-oxotryprostatin A]	IC50 [7]: 1.28 µM
